Data taken from the CheMixHub viscosity set.

Assay: xn = mol fraction of the nth substance listed

CCNCCO + O
viscosity [mPa·s]
Conditions	293.15 K	298.15 K	303.15 K	308.15 K	313.15 K	318.15 K	323.15 K
100 kPa, x2 = 0.55	32.2	–	18.1	–	10.9	–	6.98
101 kPa, x1 = 0.0499	–	–	1.968	–	–	–	–
101 kPa, x1 = 0.0998	–	–	3.824	–	–	–	–
101 kPa, x1 = 0.1506	–	–	6.179	–	–	–	–
101 kPa, x1 = 0.2011	–	–	8.652	–	–	–	–
101 kPa, x1 = 0.2982	–	–	13.25	–	–	–	–
101 kPa, x1 = 0.4029	–	–	17.07	–	–	–	–
101 kPa, x1 = 0.4458	–	–	17.98	–	–	–	–
101 kPa, x1 = 0.5051	–	–	18.79	–	–	–	–
101.3 kPa, x1 = 0.0481	2.723	–	1.934	–	1.422	–	1.093
101.3 kPa, x1 = 0.0797	4.52	3.7	3.05	2.56	2.18	1.86	1.62
101.3 kPa, x1 = 0.1001	7.45	–	4.82	–	2.74	–	2
101.3 kPa, x1 = 0.119	7.315	–	4.617	–	3.122	–	2.225
101.3 kPa, x1 = 0.168	11.94	9.26	7.3	5.85	4.78	3.96	3.34
101.3 kPa, x1 = 0.2	–	–	9.31	–	5.5	–	3.68
101.3 kPa, x1 = 0.233	17.55	–	10.33	–	6.544	–	4.39
101.3 kPa, x1 = 0.3001	23.16	–	13.36	–	8.19	–	5.2
101.3 kPa, x1 = 0.4002	28.88	–	16.31	–	10.32	–	6.29
101.3 kPa, x1 = 0.447	31.75	–	17.94	–	10.85	–	6.977
101.3 kPa, x1 = 0.5	–	–	17.86	–	11.49	–	6.88
101.3 kPa, x1 = 0.6001	31.42	–	17.96	–	11.66	–	7.05
101.3 kPa, x1 = 0.7	28.21	–	16.61	–	10.91	–	6.74
101.3 kPa, x1 = 0.8002	23.04	–	14.28	–	9.46	–	6.18
101.3 kPa, x1 = 0.9001	17.51	–	11.45	–	7.8	–	5.19
101.3 kPa, x2 = 0.3547	30.01	–	–	–	10.6	–	6.882
101.33 kPa, x1 = 0.019	1.537	1.336	1.172	1.038	0.927	0.833	0.755
101.33 kPa, x1 = 0.0419	2.508	2.112	1.804	1.559	1.362	1.201	1.068
101.33 kPa, x1 = 0.0686	3.671	3.152	2.613	2.222	1.896	1.643	1.438
101.33 kPa, x1 = 0.1	5.847	4.671	3.798	3.14	–	2.241	1.934
